Measurements reported in ChEMBL document CHEMBL6114985, “From Dyrk1A inhibitors to a novel class of antiviral agents: Targeting Enterovirus EV-A71 with 2-aryl-substituted thiophene scaffolds” (Eur J Med Chem, 2025).
Activity calls are given as the source filed them. The rule behind the calls is not given here.

Legend:
[1] = test system: enterovirus D68; test: Antiviral activity against Enterovirus D68 KY 18953 assessed as reduction in viral replication; type: functional, organism-based; conditions: Enterovirus D
[2] = biological target: T1, Dual specificity tyrosine-phosphorylation-regulated kinase 1A (Homo sapiens, UniProt Q13627); test: Inhibition of DYRK1A (unknown origin) at 25 uM incubated for 1 hr relative to control
[3] = Metabolic stability in mouse liver microsome assessed as intrinsic clearance incubated for 120 mins by HPLC-MS/MS; type: ADME; conditions: liver microsomes, read-out: CLH
[4] = Lipophilicity, logD of compound by UPLC-MS analysis; type: physicochemical; conditions: octanol/water
[5] = test system: enterovirus D68; test: Antiviral activity against Enterovirus D68 2795 assessed as reduction in viral replication; type: functional, organism-based; conditions: Enterovirus D
[6] = test system: Enterovirus A71; test: Antiviral activity against Enterovirus A71 4798 assessed as reduction in viral replication; type: functional, organism-based; conditions: Enterovirus A
[7] = test system: Enterovirus A71; test: Antiviral activity against Enterovirus A71 TW/2231/98 infected in human RD cells assessed as reduction in viral RNA level at 10 uM preincubated with cells at 1 hr followed by compound addition and measured after 9 hrs post infection by time of addition based RT-qPCR analysis; type: functional, organism-based
[8] = test system: Enterovirus A71; test: Antiviral activity against Enterovirus A71 TW/2231/98 infected in human RD cells assessed as effect on viral replication incubated for 3 to 5 days by crystal violet staining based plaque reduction assay; type: functional, organism-based; conditions: time 3-5 day
[9] = Selectivity index, ratio of CC50 for human RD cells to EC50 for antiviral activity against enterovirus A71 TW/2231/98 infected in human RD cells; type: toxicity, cell-based; conditions: read-out: Ratio CC50/EC50
[10] = Metabolic stability in mouse liver microsome assessed as half life incubated for 120 mins by HPLC-MS/MS; type: ADME; conditions: liver microsomes
[11] = biological target: T1, Dual specificity tyrosine-phosphorylation-regulated kinase 1A; test: Inhibition of DYRK1A (unknown origin)
[12] = test system: Enterovirus A71; test: Antiviral activity against Enterovirus A71 TW/2231/98 infected in human RD cells assessed as reduction in viral titer at 10 uM preincubated with cells at 1 hr followed by compound addition and measured after 9 hrs post infection by time of addition based plaque assay; type: functional, organism-based
[13] = test system: Influenza A virus; test: Antiviral activity against influenza A virus assessed as reduction in viral replication; type: functional, organism-based
[14] = test system: Enterovirus A71; test: Antiviral activity against Enterovirus A71 TW/2231/98 infected in human RD cells assessed as reduction in cytopathic effect incubated for 3 days; type: functional, organism-based; conditions: Enterovirus A, TW/2231/98, RD, 72 h
[15] = Cytotoxicity against human A549 cells infected with Human adenovirus; type: toxicity, cell-based
[16] = test system: Enterovirus A71; test: Antiviral activity against Enterovirus A71 TW/2231/98 infected in human RD cells assessed as effect on viral protein level at 10 uM preincubated with cells at 1 hr followed by compound addition and measured at 0 to 3 hrs post infection by time of addition based immunoblotting analysis; type: functional, organism-based
[17] = test system: Enterovirus A71; test: Antiviral activity against Enterovirus A71 TW/2231/98 infected in human RD cells assessed as inhibition of viral plaque formation at 2.5 uM incubated for 3 to 5 days by crystal violet staining based plaque reduction assay relative to control; type: functional; conditions: Enterovirus A, TW/2231/98, RD, time 3-5 day
[18] = in vitro; conditions: human, A549 cells
[19] = test system: Human adenovirus sp.; test: microbe, parasite or virus in culture; conditions: A549
[20] = test system: Herpes Simplexvirus; test: microbe, parasite or virus in culture; conditions: A549
[21] = test system: Enterovirus A71; test: Antiviral activity against Enterovirus A71 TW/2231/98 infected in human RD cells assessed as effect on viral RNA level at 10 uM preincubated with cells at 1 hr followed by compound addition and measured at 0 to 3 hrs post infection by time of addition based RT-qPCR analysis; type: functional, organism-based
[22] = Cytotoxicity against human RD cells assessed as reduction in cell growth incubated for 3 days by MTT assay; type: toxicity, cell-based; conditions: time 3 day
[23] = test system: Enterovirus A71; test: Antiviral activity against Enterovirus A71 TW/2231/98 infected in human RD cells assessed as effect on viral titer at 10 uM preincubated with cells at 1 hr followed by compound addition and measured at 0 to 3 hrs post infection by time of addition based plaque assay; type: functional, organism-based
[24] = test system: Herpes Simplexvirus; test: Antiviral activity against Herpes Simplexvirus infected in human A549 cells assessed as inhibition of viral replication at 0.95 uM relative to control; type: functional
[25] = Metabolic stability in human liver microsome assessed as intrinsic clearance incubated for 120 mins by HPLC-MS/MS; type: ADME; conditions: liver microsomes, read-out: CLH
[26] = test system: Enterovirus A71; test: Antiviral activity against Enterovirus A71 2231 assessed as reduction in viral replication; type: functional, organism-based; conditions: Enterovirus A
[27] = test system: Enterovirus A71; test: Antiviral activity against Enterovirus A71 TW/2231/98 infected in human RD cells assessed as inhibition of viral plaque formation at 5 uM incubated for 3 to 5 days by crystal violet staining based plaque reduction assay relative to control; type: functional; conditions: Enterovirus A, TW/2231/98, RD, time 3-5 day
[28] = test system: Enterovirus A71; test: Antiviral activity against Enterovirus A71 TW/2231/98 infected in human RD cells assessed as inhibition of viral plaque formation at 1.25 uM incubated for 3 to 5 days by crystal violet staining based plaque reduction assay relative to control; type: functional; conditions: Enterovirus A, TW/2231/98, RD, time 3-5 day
[29] = test system: Enterovirus A71; test: Antiviral activity against Enterovirus A71 TW/2231/98 infected in human RD cells assessed as reduction in viral protein level at 10 uM preincubated with cells at 1 hr followed by compound addition and measured after 9 hrs post infection by time of addition based immunoblotting analysis; type: functional, organism-based
[30] = Metabolic stability in human liver microsome assessed as half life incubated for 120 mins by HPLC-MS/MS; type: ADME; conditions: liver microsomes
[31] = Cytotoxicity against human A549 cells infected with Herpes Simplexvirus; type: toxicity, cell-based; conditions: A549 cells infected with herpes simplex virus
[32] = test system: Coxsackievirus; test: Antiviral activity against Coxsackievirus assessed as reduction in viral replication; type: functional, organism-based
[33] = Stability in mouse plasma assessed as half life by HPLC-MS/MS; type: ADME, cell-free
[34] = test system: Human rhinovirus sp.; test: Antiviral activity against Human rhinovirus 71803 assessed as reduction in viral replication; type: functional, organism-based
[35] = Stability in human plasma assessed as half life by HPLC-MS/MS; type: ADME, cell-free

Compound COc1ccc(F)c(C(=O)Nc2cncc(-c3cc(-c4cccnc4)cs3)c2)c1 has an EC50 [1] of 3.4 µM, an inhibition [2] of 95% and a microsomal CLint [3] of 104 µL/min/mg. For the same compound, the logD [4] was 3.44, the EC50 [5] was 4.7 µM and the EC50 [6] was 4.2 µM. The Activity [7] was “Active”, the Activity [8] was “Active” and the selectivity ratio [9] was 2.9. For the same compound, the half-life [10] was 14 min, the IC50 [11] was 0.038 µM and the Activity [12] was “Active”. For the same compound, the EC50 [13] was over 10 µM, the EC50 [14] was 4.4 µM and the CC50 [15] was over 10 µM. The Activity [16] was “inactive”, the inhibition at 2.5 µM [17] was about 60% and the selectivity ratio [18] was over 15. The EC50 [19] was over 10 µM, the EC50 [20] was 1 µM and the Activity [21] was “inactive”. For the same compound, the CC50 at 72 h [22] was 12.8 µM, the Activity [23] was “inactive” and the inhibition at 0.95 µM [24] was 50%. The microsomal CLint [25] was 27 µL/min/mg, the EC50 [26] was 4.4 µM and the inhibition at 5 µM [27] was 80%. For the same compound, the inhibition at 1.25 µM [28] was 20%, the Activity [29] was “Active” and the half-life [30] was 55 min. The CC50 [31] was over 15 µM, the EC50 [32] was 2.8 µM and the half-life [33] was over 240 min. It also gave an EC50 [34] of 4.2 µM and a half-life [35] of over 240 min.
